US10889575B2, “4,4-diphenylpiperidine compounds or pharmaceutically acceptable salts thereof, pharmaceutical compositions and uses thereof” (Academy of Military Medical Sciences, priority 2017, dated 2021)
“And” between values parts separate entries of the source, which are not always exact repeats. Equal values may be shown once. Where a name gives a salt, the structure may show the parent alone. Read-outs that look alike come from different tables or passages of the source.

Experiments:
[1] = tested on: acetic acid writhing in mice; experiment: mouse acetic acid writhing model (analgesic effect); assay type: in vivo, Kunming mice; settings: intragastric 30 mg/kg; for Writhing inhibition rate (%): 40 min before i.p. 0.6% acetic acid, writhings counted over 15 min
Source text: 1. Experimental purposes: To determine the analgesic activity of Compound (4) hydrochloride and Compounds (1), (2), (3), (5) in a mouse acetic acid writhing model.
2. Experimental materials: Kunming mice (18-22 g), half male and half female, were provided by the Experimental Animal Center of the Academy of Military Medical Sciences.
The mice were weighed and labeled, 10 mice in each group (half male and half female), the mice were divided into 7 groups, including 5 experimental groups (using Compound (4) hydrochloride, Compound (1), (2), (3), (5), respectively), positive control group (using NMED-160) and negative control group (using normal saline). Among them, NMED-160 used in the positive control group was a selective small molecule N-type calcium ion channel blocker, which had entered the phase II clinical trial and could be synthesized by referring to document^[11], and the structural formula thereof is as follows: […]
The mice were intragastrically administered with drug (30 mg/kg). After 40 minutes, 0.4 mL of 0.6% (v/v) acetic acid was intraperitoneally injected. After 5 minutes, the number of mouse writhings in the subsequent 15 minutes was recorded. The inhibition rate of the drug on the acetic acid writhing in mice was calculated according to the following formula, and the analgesic effect of the drug was evaluated.
A represents the number of writhings in the negative control group;
B represents the number of writhings in the experimental groups or the positive control group.

[2] = tested on: N-type calcium ion channel (α1B/β1b/α2δ); experiment: N-type calcium ion channel current suppression, two-electrode voltage clamp in Xenopus oocytes; assay type: cell-based; settings: 10 μM
Protocol: To determine the current suppressing effects of Compound (4) hydrochloride and Compounds (1), (2), (3), (5) of the present invention on N-type calcium ion channel (α1B/β1b/α2δ) transiently expressed in Xenopus oocytes.
Plasmids α1B, α2δ, β1b were injected into Xenopus oocytes in concentration ratio of 1:1:1, and the total volume of the three plasmids injected into per cell was about 46 nL. The injected cells were placed in ND-96 medium at 18° C. for 48 hours, then the expressed current was recorded.
Perfusion administration method was adopted with a flow rate of 3 mL/min and a test drug concentration of 10 μM. Using two-electrode voltage clamp technique, the cell was clamped at −100 mV, stepped at 10 mV, depolarized to +60 mV, and the current was recorded.
Current inhibition rate (%)=100×(current amplitude after administration−current amplitude before administration)/current amplitude before administration

[3] = Rapid evaluation of pharmacokinetics in rats; assay type: in vivo, SD rats
Protocol: Compound (1) was dissolved in 25% (w/v) aqueous solution of hydroxypropyl-β-cyclodextrin;
Adult SD rats, 180-220 g in body weight, male, purchased from the Animal Center of the Academy of Military Medical Sciences, Animal Certificate SCXK-(Army)-2012-0004;
Six adult SD rats were randomly numbered, and divided into 2 groups to receive intravenous injection (i.v., 1.85 mg/kg) and oral administration (p.o., 11 mg/kg) of Compound (1), respectively; blood samples were collected at 0.1 mL before administration and 2 minutes, 5 minutes, 15 minutes, 30 minutes, 60 minutes, 2 hours, 4 hours, 7 hours and 24 hours after administration, placed in anticoagulation tubes, centrifuged for 15 minutes (3500 rpm) to separate plasma, and 0.05 mL plasma samples were accurately taken and frozen in a refrigerator at −30° C. for later tests.
To the 0.05 mL rat plasma sample, 0.3 mL of acetonitrile containing the internal standard substance megestrol (100 ng/mL) and 0.005 mL of blank acetonitrile were added, vortexed for 1 minute on a vortex mixer, and centrifuged for 10 minutes (14,000 g), about 0.15 mL of the supernatant was taken and placed into an injection vial, injected 5 μL to LC-MS/MS for detection and analysis by referring to the method of the above section 2. […] The results of 1 # to 3 # were averaged, the results of 4 # to 6 # were averaged, and the relationship curves of the average concentrations of Compound (1) in the rats of i.v. administration and in the rats of p.o. administration against time were obtained and shown in FIG. 2. The Winnolin pharmacokinetic software was used to analyze the measured data and calculate the main pharmacokinetic parameters, including the area under curve (AUC), clearance rate (CL), apparent distribution volume (V), terminal elimination half life (t1/2) and mean residence time (MRT) for the intravenous injection, as well as the area under curve (AUC), terminal elimination half life (t1/2), mean residence time (MRT), peak concentration (Cmax), time to peak (Tmax) and biological force (F) for the oral administration.

in vivo = settings: SD, rat, iv
[4] = Evaluation of the central nervous system distribution in rats; settings: for Kp at 2 h: SD, rat
[5] = male, SD, rat, plasma, intravenous injection 1.85 mg/kg, n = 3
[6] = male, SD, rat, plasma, oral administration 11 mg/kg, n = 3

For `COc1cc(CN2CCC(c3ccccc3)(c3ccccc3)CC2)cc(OC)c1OC` (as salt: hydrochloride), the melting point was 235 to 237 °C.

With `O=C(CCN1CCC(c2ccccc2)(c2ccccc2)CC1)c1ccc2[nH]c(=O)oc2c1` [Compound (1), 6-(3-(4,4-diphenylpiperidinyl)-propionyl)benzoxazolin-2-one] the “Writhing inhibition rate (%)” value [1] was 58.77%, the “analgesic effect (in words)” value ([1]; acetic acid writhing) was “comparable to that of NMED-160” and the “Current inhibition rate (%)” value [2] was 70.6%. The “effect of liver metabolism on the clearance in vivo” value ([3]; i.v. clearance compared with rat liver blood flow (3.3 L/h/kg)) was “about 70%”, the V ([3]; intravenous injection 1.85 mg/kg, n = 3, 1.85 mg/kg) was 12.39 L/kg and 12.39 ± 3.17 L/kg and the AUC [3, 5] was 750 ± 98.2 ng·h/mL. The MRT [3, 5] was 3.87 ± 0.18 h, the clearance [3, 5] was 39.7 mL/min/kg and the half-life [3, 5] was 5 ± 0.88 h. It also gave an AUC [3, 6] of 1670 ± 222 ng·h/mL, a Cmax [3, 6] of 188 ± 28.5 ng/mL and an MRT [3, 6] of 5.6 ± 0.46 h. For the same molecule, the half-life [3, 6] was 5.4 ± 1.5 h, the Tmax ([3]; male, SD, rat, plasma, po, 11 mg/kg, oral administration 11 mg/kg, n = 3, read-out: Tmax) was 1 to 2 h and the F ([3]; oral 11 mg/kg vs intravenous 1.85 mg/kg, n = 3) was 44.7% and 44.7 ± 5.93%. The Tmax ([3]; oral administration 11 mg/kg, n = 3, 11 mg/kg) was 1.33 ± 0.58 h, the melting point was 236 °C (dec.) and the concentration at 2 h (in vivo) was 271 ng/mL and 998 ng/g. For the same molecule, the Kp at 2 h ([4]; brain/plasma, intravenous) was 3 ± 0.71, the Kp at 2 h ([4]; in vivo) was 3 to 4 and the Kp at 2 h ([4]; spinal cord/plasma, intravenous) was 3.7 ± 1.3. The “Concentration, Rat brain tissue” value ([4]; rats, i.v. bolus then instillation, 2 hours after administration, n = 3) was 808.3 ± 233.8 ng/g.

For `O=C(CN1CCC(c2ccccc2)(c2ccccc2)CC1)c1ccc2[nH]c(=O)oc2c1` [Compound (2), 6-(3-(4,4-diphenylpiperidinyl)-acetyl)benzoxazolin-2-one], the “Writhing inhibition rate (%)” value [1] was 54.66% and the “Current inhibition rate (%)” value [2] was 65.6%.

In the case of `CN(C)c1ccc(CN2CCC(c3ccccc3)(c3ccccc3)CC2)cc1` [Compound (3), 1-(4-dimethylaminobenzyl)-4,4-diphenylpiperidine], the “Writhing inhibition rate (%)” value [1] is reported as 23.17%, the “Current inhibition rate (%)” value [2] is reported as 42.3% and the melting point is reported as 128 to 130 °C.

In the case of `COc1cc(CN2CCC(c3ccccc3)(c3ccccc3)CC2)cc(OC)c1OC.Cl` [Compound (4) hydrochloride, 1-(3,4,5-trimethoxybenzyl)-4,4-diphenylpiperidine hydrochloride], the “Writhing inhibition rate (%)” value [1] is reported as 39.68% and the “Current inhibition rate (%)” value [2] is reported as 54.1%.

With `c1ccc(C2(c3ccccc3)CCN(Cc3cccs3)CC2)cc1` [Compound (5), 1-(2-methylthienyl)-4,4-diphenylpiperidine] the “Writhing inhibition rate (%)” value [1] was 46.87% and the “Current inhibition rate (%)” value [2] was 45.3%.

In the case of `O=C(CC(c1ccccc1)c1ccccc1)N1CCN(C(c2ccccc2)c2ccccc2)CC1` [NMED-160, reference compound], the “Writhing inhibition rate (%)” value [1] is reported as 51.75%.
